This note sets out measurements from US10508077B2 (FORMA Therapeutics, Inc., priority 2015, dated 2019).

In test [1] the target is T1, Recombinant N-terminal GST tag full-length human HDAC8 (Homo sapiens, UniProt Q9BY41).
T1 construct: Recombinant N-terminal GST tag full-length human HDAC8; purchased SignalChem H90-30G-1000; host or cells: Sf9 insect cells (baculovirus)
T1 sequence (Q9BY41 1-377): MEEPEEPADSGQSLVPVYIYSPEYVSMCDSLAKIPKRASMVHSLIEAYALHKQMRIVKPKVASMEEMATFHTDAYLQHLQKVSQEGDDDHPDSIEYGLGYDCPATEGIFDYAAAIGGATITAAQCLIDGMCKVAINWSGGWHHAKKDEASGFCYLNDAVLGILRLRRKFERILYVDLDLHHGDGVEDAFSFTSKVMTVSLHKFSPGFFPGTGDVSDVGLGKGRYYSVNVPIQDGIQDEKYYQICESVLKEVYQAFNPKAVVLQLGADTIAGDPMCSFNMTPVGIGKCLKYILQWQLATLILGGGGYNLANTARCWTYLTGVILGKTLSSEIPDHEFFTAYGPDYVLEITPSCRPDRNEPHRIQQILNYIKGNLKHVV
The test is described as follows: HDAC8 probe binding assay, time resolved fluorescence (TRF). The following applies: fluorescein labeled pan-HDAC inhibitor probe, 16 hours incubation, compounds listed under IC50 range headings. Summed up:
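TR-FRET probe displacement using GST-tagged full-length human HDAC8 (Sf9-expressed, 2.5 nM) with 1.5 nM fluorescein-labelled pan-HDAC inhibitor probe and anti-GST terbium, in HEPES pH 7.5 buffer with GSH, BGG, Triton X-100. Compounds 25 μM–1.3 nM, 10-point; 16 h at room temperature. IC50 from 4-parameter fit of % inhibition versus no-enzyme and DMSO controls.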

Test [2] deals with T2, Full length human recombinant HDAC8 protein (Homo sapiens, UniProt Q9BY41).
T2 construct: Full length human recombinant HDAC8 protein was expressed in baculoviral system; made in house
T2 sequence (Q9BY41 1-377): T1 sequence (Q9BY41 1-377)
Nature of the test: In vitro histone deacetylase assay: enzymatic HDAC8 assay, electrophoretic mobility shift. The following applies: substrate RHKK(Ac)-NH2, 1 nM enzyme, compounds listed under IC50 range headings. It counts as biochemical. Summed up:
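Baculovirus-expressed full-length human HDAC8 (1 nM) deacetylated 2 µM fluorescent RHKK(Ac)-NH2 peptide in pH 7.5 HEPES, 1% DMSO, at 25 °C, with 12 compound concentrations at 3× spacing. SDS-quenched; product and substrate resolved by microfluidic electrophoresis, P/(S+P) converted to percent inhibition, and IC50 obtained by 4-parameter fit.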

Counter-ions that a name gives are not always drawn. Some results are limits rather than exact numbers.

In general, IC50 refers to the concentration that gives 50% inhibition.

As to `CCCn1c(C(=O)Nc2ccccc2/C=C/C(=O)NO)cc2ccccc21` [Example I-270, (E)-N-(2-(3-(hydroxyamino)-3-oxoprop-1-en-1-yl)phenyl)-1-propyl-1H-indole-2-carboxamide], the IC50 in test [1] is not above 1000 nM; in test [2], less than 1000 nM.
Take `CCn1nc(C)cc1C(=O)Nc1ccccc1/C=C/C(=O)NO` [Example I-274, (E)-1-ethyl-N-(2-(3-(hydroxyamino)-3-oxoprop-1-en-1-yl)phenyl)-3-methyl-1H-pyrazole-5-carboxamide]: the results for the half-inhibitory concentration (IC50) in test [1] and in test [2] were not above 1000 nM and less than 1000 nM, respectively.
With `Cc1onc(-c2c(Cl)cccc2Cl)c1C(=O)Nc1ccccc1/C=C/C(=O)NO` [Example I-275, (E)-3-(2,6-dichlorophenyl)-N-(2-(3-(hydroxyamino)-3-oxoprop-1-en-1-yl)phenyl)-5-methylisoxazole-4-carboxamide], the values for the IC50 in test [1] and in test [2] were not above 1000 nM and less than 1000 nM, respectively.
As to `CCC(Oc1ccccc1)C(=O)Nc1ccccc1/C=C/C(=O)NO` (centres unmarked) [Example I-281, (E)-N-(2-(3-(hydroxyamino)-3-oxoprop-1-en-1-yl)phenyl)-2-phenoxybutanamide], the concentration for half-maximal inhibition (IC50) in test [1] is not above 1000 nM; in test [2], less than 1000 nM.
For `O=C(/C=C/c1ccccc1NC(=O)[C@@H]1C[C@H]2CC[C@@H]1O2)NO` [Example I-282, (1S,2R,4R)-N-(2-((E)-3-(hydroxyamino)-3-oxoprop-1-en-1-yl)phenyl)-7-oxabicyclo[2.2.1]heptane-2-carboxamide], in that order: not above 1000 nM and less than 1000 nM.
Taken in the same sequence, the figures for `Cc1cc(C)n(Cc2ccc(C(=O)Nc3ccccc3/C=C/C(=O)NO)cc2)n1` [Example I-288, (E)-4-((3,5-dimethyl-1H-pyrazol-1-yl)methyl)-N-(2-(3-(hydroxyamino)-3-oxoprop-1-en-1-yl)phenyl)benzamide] were not above 1000 nM and less than 1000 nM.
In the case of `COc1ccc(CN2CCN(c3ccccc3/C=C/C(=O)NO)C(=O)C2)cc1` [Example I-293, (E)-N-hydroxy-3-(2-(4-(4-methoxybenzyl)-2-oxopiperazin-1-yl)phenyl)acrylamide], the IC50 was not above 1000 nM in test [1] and less than 1000 nM in test [2].
On to `Cc1cc(C(=O)N2CCN(c3ccccc3/C=C/C(=O)NO)CC2)n(C)n1` [Example I-298, (E)-3-(2-(4-(1,3-dimethyl-1H-pyrazole-5-carbonyl)piperazin-1-yl)phenyl)-N-hydroxyacrylamide], for which the IC50 in test [1] is not above 1000 nM; in test [2], less than 1000 nM.
Take `O=C(/C=C/c1ccccc1NC(=O)c1ccccc1Oc1ccc(C(F)(F)F)cc1)NO` [Example I-303, (E)-N-(2-(3-(hydroxyamino)-3-oxoprop-1-en-1-yl)phenyl)-2-(4-(trifluoromethyl)phenoxy)benzamide]: the IC50 was not above 1000 nM in test [1] and less than 1000 nM in test [2].
Take `COc1ccccc1Oc1ccccc1C(=O)Nc1ccccc1/C=C/C(=O)NO` [Example I-304, (E)-N-(2-(3-(hydroxyamino)-3-oxoprop-1-en-1-yl)phenyl)-2-(2-methoxyphenoxy)benzamide]: the values for the IC50 in test [1] and in test [2] were not above 1000 nM and less than 1000 nM, respectively.
On to `O=C(/C=C/c1ccccc1NC(=O)c1ccccc1Oc1ccc(F)cc1)NO` [Example I-306, (E)-2-(4-fluorophenoxy)-N-(2-(3-(hydroxyamino)-3-oxoprop-1-en-1-yl)phenyl)benzamide], for which the IC50 was not above 1000 nM in test [1] and less than 1000 nM in test [2].
On to `CC(=O)NC1CCN(c2ccccc2/C=C/C(=O)NO)C1` (centres unmarked) [Example I-307, (E)-3-(2-(3-acetamidopyrrolidin-1-yl)phenyl)-N-hydroxyacrylamide], for which the IC50 in test [1] was not above 1000 nM; in test [2], less than 1000 nM.
For `O=C(/C=C/c1ccccc1N1CC(c2ccccc2)CC1=O)NO` (centres unmarked) [Example I-309, (E)-N-hydroxy-3-(2-(2-oxo-4-phenylpyrrolidin-1-yl)phenyl)acrylamide], in that order: not above 1000 nM and less than 1000 nM.
Consider `CC(C)(C)OC(=O)N1CCC2(CC1)CCN(c1ccccc1/C=C/C(=O)NO)C2=O` [Example I-310, tert-butyl (E)-2-(2-(3-(hydroxyamino)-3-oxoprop-1-en-1-yl)phenyl)-1-oxo-2,8-diazaspiro[4.5]decane-8-carboxylate], for which the IC50 in test [1] is not above 1000 nM; in test [2], less than 1000 nM.
For the compound `O=C(/C=C/c1ccccc1NC(=O)c1cnc(-c2ccccc2F)s1)NO` [Example I-311, (E)-2-(2-fluorophenyl)-N-(2-(3-(hydroxyamino)-3-oxoprop-1-en-1-yl)phenyl)thiazole-5-carboxamide], the half-inhibitory concentration (IC50) in test [1] was not above 1000 nM; in test [2], less than 1000 nM.
`O=C(/C=C/c1ccccc1NC(=O)c1cnc(-c2ccccn2)s1)NO` [Example I-312, (E)-N-(2-(3-(hydroxyamino)-3-oxoprop-1-en-1-yl)phenyl)-2-(pyridin-2-yl)thiazole-5-carboxamide]: the results for the IC50 in test [1] and in test [2] were not above 1000 nM and less than 1000 nM, respectively.
In the case of `O=C(/C=C/c1ccccc1NC(=O)c1ccncc1N1CCOCC1)NO` [Example I-313, (E)-N-(2-(3-(hydroxyamino)-3-oxoprop-1-en-1-yl)phenyl)-3-morpholinoisonicotinamide], the half-maximal inhibitory concentration (IC50) in test [1] was not above 1000 nM; in test [2], less than 1000 nM.
Take `O=C(/C=C/c1ccccc1NC(=O)c1ccccc1Oc1cccnc1)NO` [Example I-314, (E)-N-(2-(3-(hydroxyamino)-3-oxoprop-1-en-1-yl)phenyl)-2-(pyridin-3-yloxy)benzamide]: the figures for the IC50 in test [1] and in test [2] were not above 1000 nM and less than 1000 nM, respectively.
Turning to `Cc1nc(C)c(CN2CCN(c3ccccc3/C=C/C(=O)NO)CC2)s1` [Example I-315, (E)-3-(2-(4-((2,4-dimethylthiazol-5-yl)methyl)piperazin-1-yl)phenyl)-N-hydroxyacrylamide], the concentration for half-maximal inhibition (IC50) is not above 1000 nM in test [1] and less than 1000 nM in test [2].
`Cc1cc(CN2C[C@@H]3C[C@H]2CN3c2ccccc2/C=C/C(=O)NO)n(C)n1` [Example I-317, (E)-3-(2-((1S,4S)-5-((1,3-dimethyl-1H-pyrazol-5-yl)methyl)-2,5-diazabicyclo[2.2.1]heptan-2-yl)phenyl)-N-hydroxyacrylamide]: the figures for the IC50 in test [1] and in test [2] were not above 1000 nM and less than 1000 nM, respectively.
As for `O=C(/C=C/c1ccccc1NC(=O)c1cnc(N2CCOCC2)s1)NO` [Example I-319, (E)-N-(2-(3-(hydroxyamino)-3-oxoprop-1-en-1-yl)phenyl)-2-morpholinothiazole-5-carboxamide], the 50% inhibitory concentration (IC50) in test [1] was not above 1000 nM; in test [2], less than 1000 nM.
With `Cc1onc(-c2ccccc2Cl)c1C(=O)Nc1ccccc1/C=C/C(=O)NO` [Example I-320, (E)-3-(2-chlorophenyl)-N-(2-(3-(hydroxyamino)-3-oxoprop-1-en-1-yl)phenyl)-5-methylisoxazole-4-carboxamide], the IC50 in test [1] is not above 1000 nM; in test [2] it was less than 1000 nM.
Consider `O=C(/C=C/c1ccccc1N1CCN(C(=O)C2(c3cccnc3)CC2)CC1)NO` [Example I-321, (E)-N-hydroxy-3-(2-(4-(1-(pyridin-3-yl)cyclopropane-1-carbonyl)piperazin-1-yl)phenyl)acrylamide], for which the values for the IC50 in test [1] and in test [2] were not above 1000 nM and less than 1000 nM, respectively.
In the case of `Cc1onc(-c2ccc(F)cc2)c1C(=O)Nc1ccccc1/C=C/C(=O)NO` [Example I-323, (E)-3-(4-fluorophenyl)-N-(2-(3-(hydroxyamino)-3-oxoprop-1-en-1-yl)phenyl)-5-methylisoxazole-4-carboxamide], the concentration for half-maximal inhibition (IC50) in test [1] was not above 1000 nM; in test [2] it was less than 1000 nM.
Taken in the same sequence, the figures for `O=C(NO)/C(F)=C/c1ccccc1NC(=O)c1cccc(C(F)(F)F)c1` [Example I-324, (Z)—N-(2-(2-fluoro-3-(hydroxyamino)-3-oxoprop-1-en-1-yl)phenyl)-3-(trifluoromethyl)benzamide] were not above 1000 nM and less than 1000 nM.
As to `O=C(NO)/C(F)=C/c1ccccc1NC(=O)c1ccccc1Oc1ccccc1` [Example I-325, (Z)—N-(2-(2-fluoro-3-(hydroxyamino)-3-oxoprop-1-enyl)phenyl)-2-phenoxybenzamide hydrochloride], the IC50 was not above 1000 nM in test [1] and less than 1000 nM in test [2].
As for `CN1CCN(c2ccccc2/C=C/C(=O)NO)CC1` [Example I-326, (E)-N-hydroxy-3-(2-(4-methylpiperazin-1-yl)phenyl)acrylamide], the IC50 is not above 1000 nM in test [1] and less than 1000 nM in test [2].
As for `O=C(/C=C/c1ccccc1N1CCN(S(=O)(=O)c2ccccc2)CC1=O)NO` [Example I-526, (E)-N-hydroxy-3-(2-(2-oxo-4-(phenylsulfonyl)piperazin-1-yl)phenyl)acrylamide], the half-inhibitory concentration (IC50) in test [1] was not above 1000 nM; in test [2] it was less than 1000 nM.
